Consider eleven compounds from ChEMBL document CHEMBL1123159, “Quantitative evaluation of the beta 2-adrenoceptor intrinsic activity of N-tert-butylphenylethanolamines” (J Med Chem, 1986).

Series [1] addresses Beta-2 adrenergic receptor (Bos taurus) (UniProt Q28044). In words: Beta-2 adrenergic receptor intrinsic symphaticomimetic activity relative to salbutamol. Type of series: functional.
Series [2] has the same target. The experiment in a line: Concentration required for maximal (95-100%) beta-2 adrenergic receptor occupancy.
Series [3] shares this target. In words: Intrinsic activity was measured as concentration of beta-2 adrenergic receptor agonist required for cAMP production. It is filed as functional. A general note: Cyclic AMP is a second messenger, typically raised through Gs and lowered through Gi signalling.
The nature of series [4]: log(1/ISA) value of the compound.
In series [5] the target is Beta-2 adrenergic receptor (Bos taurus, UniProt Q28044). The experiment in a line: Apparent binding affinity constant to beta-2 adrenergic receptor determined using [3H]DHA. As to conditions: read-out: KD app.
Sequence of Beta-2 adrenergic receptor (Q28044 whole entry): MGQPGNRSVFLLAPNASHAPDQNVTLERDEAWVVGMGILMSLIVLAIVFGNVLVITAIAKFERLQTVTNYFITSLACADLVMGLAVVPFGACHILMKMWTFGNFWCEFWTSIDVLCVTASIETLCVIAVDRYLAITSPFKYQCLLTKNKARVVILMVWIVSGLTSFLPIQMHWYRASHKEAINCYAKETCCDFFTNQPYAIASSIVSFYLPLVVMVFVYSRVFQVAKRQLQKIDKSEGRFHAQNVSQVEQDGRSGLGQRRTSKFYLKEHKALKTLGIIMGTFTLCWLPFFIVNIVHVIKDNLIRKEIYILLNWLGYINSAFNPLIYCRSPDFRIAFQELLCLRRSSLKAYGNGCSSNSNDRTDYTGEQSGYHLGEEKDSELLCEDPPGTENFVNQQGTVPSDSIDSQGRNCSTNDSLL

Sequence of Beta-2 adrenergic receptor (Bos taurus) (Q28044 whole entry, looked up): as the sequence (Q28044 whole entry) above

Turning to `CC(C)(C)NCC(O)c1cc(Cl)c(N)c(Cl)c1` (stereo not given), in series [1], the ISA turned out to be 0.53. Moreover, the Concentration in series [2] was found to be 1 µM. Also, in series [3], the cAMP production (pM min-1 mg-1) stood at 64.
For `CC(C)(C)NCC(O)c1ccc(O)c(CO)c1` (stereo not given) the same measures were 1, 30 µM and 122.
Regarding `CC(C)(C)NCC(O)c1cc(Cl)c(O)c(Cl)c1` (stereo not given), the ISA in series [1] stood at 0.39. The “Log 1/ISA” value in series [4] is 0.41. Also, in series [2], the Concentration is 300 µM. This compound also displayed a cAMP production (pM min-1 mg-1) in series [3] of 47. Also, in series [5], the Kd came out at 6470 nM.
As for `CC(C)(C)NCC(O)c1ccc(O)c(N)c1` (stereo not given), the ISA in series [1] is 0.68. The “Log 1/ISA” value in series [4] is 0.17. In addition, in series [3], the cAMP production (pM min-1 mg-1) was 83. Moreover, the Kd in series [5] amounted to 2170 nM.
Consider `CC(C)(C)NCC(O)c1ccc(O)cc1` (stereo not given), for which the ISA in series [1] came out at 0.8. Moreover, the “Log 1/ISA” value in series [4] is reported as 0.1. This compound came in with a Concentration in series [2] of 100 µM. In series [3], this compound displayed a cAMP production (pM min-1 mg-1) of 97. Besides, the Kd in series [5] was 1350 nM.
For `CC(C)(C)NCC(O)c1ccccc1` (stereo not given) the same measures were 0.35, 0.46, 100 µM, 43 and 2940 nM.
In series [1], `CC(C)(C)NCC(O)c1ccc(O)c(O)c1` (stereo not given) [COLTEROL] gave an ISA of 0.68. Besides, in series [4], the “Log 1/ISA” value is recorded as 0.17. For the same compound, the cAMP production (pM min-1 mg-1) in series [3] was 83. For the same compound, in series [5], the Kd worked out at 670 nM.
Consider `CC(C)(C)NCC(O)c1ccc(O)c(C(N)=O)c1` (stereo not given), for which, in series [1], the ISA is 0.2. Besides, in series [4], the “Log 1/ISA” value is reported as 0.7. For the same compound, the Concentration in series [2] is 30 µM. Besides, the cAMP production (pM min-1 mg-1) in series [3] amounted to 24. In addition, in series [5], the Kd amounted to 1030 nM.
For `CNc1cc(C(O)CNC(C)(C)C)ccc1O` (stereo not given) the same measures were 0.95, 0.02, 30 µM, 115 and 560 nM.
Take `CC(C)(C)NCC(O)c1cc(O)cc(O)c1` (stereo not given): the ISA in series [1] is 0.41. Further, in series [3], the cAMP production (pM min-1 mg-1) is 50.
In series [1], `CC(C)(C)NCC(O)c1ccccc1Cl` (stereo not given) [TULOBUTEROL] yielded an ISA of 0.5. For the same compound, the “Log 1/ISA” value in series [4] is reported as 0.3. The compound also yielded a Concentration in series [2] of 10 µM. Moreover, in series [3], the cAMP production (pM min-1 mg-1) turned out to be 61.
